± gives the expanded uncertainty stated by the source.
What was measured:
[1] = Molar enthalpy of transition or fusion; conditions: Crystal; DSC
[2] = for Normal melting temperature: DTA

NC(=O)c1cccc(F)c1 [3-fluorobenzamide]
Conditions | Molar enthalpy of transition or fusion [kcal/mol]
[1] | 5.14 ± 0.12

[2]
Conditions | vapor or sublimation pressure [kPa]
323.1 K, Crystal, Calculated from knudsen effusion weight loss | 9e-05 ± 2e-05
325.17 K, Crystal, Calculated from knudsen effusion weight loss | 0.000114 ± 2e-05
327.18 K, Crystal, Calculated from knudsen effusion weight loss | 0.000143 ± 2.1e-05
329.08 K, Crystal, Calculated from knudsen effusion weight loss | 0.000183 ± 2.1e-05
331.13 K, Crystal, Calculated from knudsen effusion weight loss | 0.000229 ± 2.2e-05
333.18 K, Crystal, Calculated from knudsen effusion weight loss | 0.000286 ± 2.2e-05
336.83 K, Crystal, Closed cell (Static) method | 0.00046 ± 0.00012
337.28 K, Crystal, Calculated from knudsen effusion weight loss | 0.000461 ± 2.6e-05
339.17 K, Crystal, Calculated from knudsen effusion weight loss | 0.000559 ± 2.8e-05
339.76 K, Crystal, Closed cell (Static) method | 0.00063 ± 0.00012
341.08 K, Crystal, Calculated from knudsen effusion weight loss | 0.000688 ± 3.2e-05
342.87 K, Crystal, Closed cell (Static) method | 0.00089 ± 0.00012
343.13 K, Crystal, Calculated from knudsen effusion weight loss | 0.000842 ± 3.6e-05
345.18 K, Crystal, Calculated from knudsen effusion weight loss | 0.001032 ± 8.1e-05
345.87 K, Crystal, Closed cell (Static) method | 0.0012 ± 0.00013
348.82 K, Crystal, Closed cell (Static) method | 0.00166 ± 0.00013
351.66 K, Crystal, Closed cell (Static) method | 0.00222 ± 0.00015
354.65 K, Crystal, Closed cell (Static) method | 0.003 ± 0.00017
357.76 K, Crystal, Closed cell (Static) method | 0.00407 ± 0.0002
360.59 K, Crystal, Closed cell (Static) method | 0.00535 ± 0.00024
363.62 K, Crystal, Closed cell (Static) method | 0.0071 ± 0.0003
366.55 K, Crystal, Closed cell (Static) method | 0.00941 ± 0.00039
372.5 K, Crystal, Closed cell (Static) method | 0.01592 ± 0.00056
375.47 K, Crystal, Closed cell (Static) method | 0.02067 ± 0.00064
378.58 K, Crystal, Closed cell (Static) method | 0.02712 ± 0.00074
382.58 K, Liquid, Closed cell (Static) method | 0.0587 ± 0.0012
384.49 K, Crystal, Closed cell (Static) method | 0.04471 ± 0.001
387.47 K, Crystal, Closed cell (Static) method | 0.05659 ± 0.0012
387.53 K, Liquid, Closed cell (Static) method | 0.07955 ± 0.0015
390.45 K, Crystal, Closed cell (Static) method | 0.07258 ± 0.0014
392.49 K, Liquid, Closed cell (Static) method | 0.108 ± 0.002
396.38 K, Crystal, Closed cell (Static) method | 0.1148 ± 0.0021
397.43 K, Liquid, Closed cell (Static) method | 0.1444 ± 0.0021
402.37 K, Liquid, Closed cell (Static) method | 0.1895 ± 0.0025
407.27 K, Liquid, Closed cell (Static) method | 0.2514 ± 0.003
412.23 K, Liquid, Closed cell (Static) method | 0.3264 ± 0.0036
417.16 K, Liquid, Closed cell (Static) method | 0.4262 ± 0.0045
422.04 K, Liquid, Closed cell (Static) method | 0.5472 ± 0.0055
427.02 K, Liquid, Closed cell (Static) method | 0.7039 ± 0.0069
432 K, Liquid, Closed cell (Static) method | 0.9006 ± 0.0086

Conditions | Normal melting temperature [°C]
[2], Crystal | 128.43 ± 0.39

NC(=O)c1ccc(F)cc1 [4-fluorobenzamide]
Conditions | Molar enthalpy of transition or fusion [kcal/mol]
[1] | 4.66 ± 0.167

[2], Closed cell (Static) method
Conditions | vapor or sublimation pressure [kPa]
344.79 K, Crystal | 0.0007 ± 0.00012
347.76 K, Crystal | 0.00097 ± 0.00012
350.74 K, Crystal | 0.0013 ± 0.00013
353.73 K, Crystal | 0.00174 ± 0.00014
356.7 K, Crystal | 0.00236 ± 0.00015
359.68 K, Crystal | 0.00313 ± 0.00017
362.66 K, Crystal | 0.0041 ± 0.0002
365.63 K, Crystal | 0.00535 ± 0.00024
368.61 K, Crystal | 0.00699 ± 0.0003
371.58 K, Crystal | 0.009 ± 0.00037
374.54 K, Crystal | 0.01167 ± 0.00047
377.53 K, Crystal | 0.015 ± 0.00055
380.48 K, Crystal | 0.01934 ± 0.00062
383.47 K, Crystal | 0.02445 ± 0.00069
386.43 K, Crystal | 0.03134 ± 0.0008
392.35 K, Crystal | 0.04995 ± 0.0011
395.33 K, Crystal | 0.06299 ± 0.0013
398.28 K, Crystal | 0.07872 ± 0.0015
401.25 K, Crystal | 0.09854 ± 0.0018
404.24 K, Crystal | 0.1266 ± 0.0023
407.22 K, Crystal | 0.1568 ± 0.0022
410.16 K, Crystal | 0.1944 ± 0.0025
410.2 K, Liquid | 0.2629 ± 0.0031
412.16 K, Liquid | 0.2902 ± 0.0033
413.14 K, Crystal | 0.2396 ± 0.0029
414.13 K, Liquid | 0.3222 ± 0.0036
416.1 K, Crystal | 0.2948 ± 0.0034
416.11 K, Liquid | 0.3584 ± 0.0039
418.11 K, Liquid | 0.3963 ± 0.0042
419.06 K, Crystal | 0.3637 ± 0.004
420.05 K, Liquid | 0.4398 ± 0.0046
422.01 K, Crystal | 0.4419 ± 0.0046
422.03 K, Liquid | 0.4862 ± 0.005
424.02 K, Liquid | 0.5382 ± 0.0055
424.99 K, Crystal | 0.538 ± 0.0055
426 K, Liquid | 0.593 ± 0.0059
427.93 K, Liquid | 0.6524 ± 0.0065
429.92 K, Liquid | 0.719 ± 0.007
431.89 K, Liquid | 0.7879 ± 0.0076
433.87 K, Liquid | 0.8708 ± 0.0084
435.84 K, Liquid | 0.9508 ± 0.009
437.82 K, Liquid | 1.04 ± 0.01

Conditions | Normal melting temperature [°C]
[2], Crystal | 156.04 ± 0.39

NC(=O)c1ccccc1F [o-fluorobenzamide]
Conditions | Molar enthalpy of transition or fusion [kcal/mol]
[1] | 4.95 ± 0.12

[2]
Conditions | vapor or sublimation pressure [kPa]
303.12 K, Crystal, Calculated from knudsen effusion weight loss | 0.000102 ± 2e-05
305.21 K, Crystal, Calculated from knudsen effusion weight loss | 0.00013 ± 2.1e-05
307.19 K, Crystal, Calculated from knudsen effusion weight loss | 0.000166 ± 2.1e-05
309.12 K, Crystal, Calculated from knudsen effusion weight loss | 0.000213 ± 2.1e-05
311.2 K, Crystal, Calculated from knudsen effusion weight loss | 0.00027 ± 2.2e-05
313.29 K, Crystal, Calculated from knudsen effusion weight loss | 0.000341 ± 2.3e-05
315.11 K, Crystal, Calculated from knudsen effusion weight loss | 0.000429 ± 2.5e-05
317.2 K, Crystal, Calculated from knudsen effusion weight loss | 0.00054 ± 2.8e-05
317.98 K, Crystal, Closed cell (Static) method | 0.0006 ± 0.00011
319.18 K, Crystal, Calculated from knudsen effusion weight loss | 0.000668 ± 3.1e-05
320.48 K, Crystal, Closed cell (Static) method | 0.0008 ± 0.00011
321.11 K, Crystal, Calculated from knudsen effusion weight loss | 0.000843 ± 3.6e-05
322.94 K, Crystal, Closed cell (Static) method | 0.00105 ± 0.00012
323.18 K, Crystal, Calculated from knudsen effusion weight loss | 0.001059 ± 8.3e-05
325.18 K, Crystal, Calculated from knudsen effusion weight loss | 0.001295 ± 0.00011
325.41 K, Crystal, Closed cell (Static) method | 0.00137 ± 0.00012
327.86 K, Crystal, Closed cell (Static) method | 0.00175 ± 0.00013
330.38 K, Crystal, Closed cell (Static) method | 0.00233 ± 0.00015
332.86 K, Crystal, Closed cell (Static) method | 0.003 ± 0.00016
335.32 K, Crystal, Closed cell (Static) method | 0.0038 ± 0.00019
337.75 K, Crystal, Closed cell (Static) method | 0.00484 ± 0.00022
340.21 K, Crystal, Closed cell (Static) method | 0.00617 ± 0.00027
342.7 K, Crystal, Closed cell (Static) method | 0.00785 ± 0.00033
345.32 K, Crystal, Closed cell (Static) method | 0.01002 ± 0.00041
350.2 K, Crystal, Closed cell (Static) method | 0.01581 ± 0.00056
355.69 K, Crystal, Closed cell (Static) method | 0.02544 ± 0.00071
357.75 K, Crystal, Closed cell (Static) method | 0.03116 ± 0.0008
358.65 K, Liquid, Closed cell (Static) method | 0.05979 ± 0.0012
360.13 K, Crystal, Closed cell (Static) method | 0.03777 ± 0.0009
361.55 K, Liquid, Closed cell (Static) method | 0.07225 ± 0.0014
362.71 K, Crystal, Closed cell (Static) method | 0.04753 ± 0.001
364.59 K, Liquid, Closed cell (Static) method | 0.08814 ± 0.0017
365.1 K, Crystal, Closed cell (Static) method | 0.05735 ± 0.0012
367.55 K, Liquid, Closed cell (Static) method | 0.1048 ± 0.0019
370.04 K, Crystal, Closed cell (Static) method | 0.08597 ± 0.0016
370.55 K, Liquid, Closed cell (Static) method | 0.126 ± 0.0023
372.63 K, Crystal, Closed cell (Static) method | 0.1058 ± 0.002
375.47 K, Liquid, Closed cell (Static) method | 0.1688 ± 0.0023
377.6 K, Crystal, Closed cell (Static) method | 0.1572 ± 0.0022
380.43 K, Liquid, Closed cell (Static) method | 0.225 ± 0.0028
385.38 K, Liquid, Closed cell (Static) method | 0.2972 ± 0.0034
391.35 K, Liquid, Closed cell (Static) method | 0.4081 ± 0.0043
394.82 K, Liquid, Closed cell (Static) method | 0.4892 ± 0.005
397.41 K, Liquid, Closed cell (Static) method | 0.5572 ± 0.0056
399.81 K, Liquid, Closed cell (Static) method | 0.6302 ± 0.0063
402.34 K, Liquid, Closed cell (Static) method | 0.7124 ± 0.007
404.79 K, Liquid, Closed cell (Static) method | 0.8064 ± 0.0078
407.26 K, Liquid, Closed cell (Static) method | 0.9115 ± 0.0087
409.66 K, Liquid, Closed cell (Static) method | 1.024 ± 0.01
412.16 K, Liquid, Closed cell (Static) method | 1.147 ± 0.011

Conditions | Normal melting temperature [°C]
[2], Crystal | 115.34 ± 0.52

Reference: the NIST ThermoML archive (doi:10.1021/je100801s)
